Reference: patent publication US11065253B2, “Arylquinazolines” (Merck Patent GmbH, priority 2013, dated 2021)
Read-outs that look alike come from different tables or passages of the source. Each block holds one compound with its values, some of them ahead of it.

Tested on: phospho-serine 2056 DNA-PK in HCT116 cells
Test: DNA-PK phosphorylation at serine 2056 (cellular), ELISA in bleomycin-treated HCT116 cells
Type: cell-based
Conditions: read-out: IC50 pDNA-PK
How it was run: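 HCT116, MEM alpha + 10% FCS, 37 °C/10% CO2, seeded o/n. Cpd + 10 μM bleomycin, 6 h. ELISA, chemiluminescence; phospho/total DNA-PKcs ratio, DMSO = blank.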

[1] = Homo sapiens, HCT-116, phospho-serine 2056 DNA-PK, bleomycin-treated HCT116 cells, class symbols A-D
[2] = Homo sapiens, HCT-116, phospho-serine 2056 DNA-PK, bleomycin-treated HCT116 cells
[3] = Homo sapiens, HCT-116, 6 h, cellular, HCT116 cells, 10 μM bleomycin, six hours
[4] = phospho-serine 2056 DNA-PK, bleomycin-treated HCT116 cells, class symbols A-D
[5] = cellular DNA-PK phosphorylation at serine 2056, HCT116 cells
[6] = Homo sapiens, HCT-116, cellular DNA-PK phosphorylation at serine 2056, HCT116 cells

SMILES: COc1ccc(C(C(N)=O)c2cc(-c3ncnc4cc(N5CCOCC5)ccc34)c(F)cc2Cl)nn1 (stereo not shown) [Example 325, 2-[2-Chloro-4-fluoro-5-(7-morpholin-4-yl-quinazolin-4-yl)-phenyl]-2-(6-methoxypyridazin-3-yl)acetamide]
IC50 (phospho-serine 2056 DNA-PK, bleomycin-treated HCT116 cells): 10 to 30 µM

IC50 [1]: 0.5 to 5 µM
SMILES: CCn1cc(C(O)c2cc(-c3ncnc4cc(N5CCOCC5)ccc34)c(F)cc2Cl)cn1 (stereo not shown) [Example 202, [2-Chloro-4-fluoro-5-(7-morpholin-4-ylquinazolin-4-yl)-phenyl]-(1-ethyl-1H-pyrazol-4-yl)-methanol]

IC50 [2]: 5 to 10 µM
SMILES: Cc1nccnc1C(C(N)=O)c1cc(-c2ncnc3cc(N4CCOCC4)ccc23)c(F)cc1F (stereo not shown) [Example 329, 2-[2,4-Difluoro-5-(7-morpholin-4-yl-quinazolin-4-yl)-phenyl]-2-(3-methyl-pyrazin-2-yl)-acetamide]

IC50 [2]: 5 to 10 µM
SMILES: COc1nnccc1C(C(N)=O)c1cc(-c2ncnc3cc(N4CCOCC4)ccc23)c(F)cc1Cl (stereo not shown) [Example 307, 2-[2-Chloro-4-fluoro-5-(7-morpholin-4-yl-quinazolin-4-yl)-phenyl]-2-(3-methoxypyridazin-4-yl)acetamide]

IC50 [1]: < 0.5 µM
SMILES: OC(c1cccnc1)c1cc(-c2ncnc3cc(N4CCOCC4)ccc23)c(F)cc1F (stereo not shown) [Example 217, [2,4-Difluoro-5-(7-morpholin-4-yl-quinazolin-4-yl)-phenyl]pyridin-3-yl-methanol]

IC50 [3]: 0.5 to 5 µM
SMILES: OC(c1ccc(F)c(-c2ncnc3cc(N4CCOCC4)ccc23)c1)c1c(Cl)cncc1Cl (stereo not shown) [Example 17, (3,5-Dichloro-pyridin-4-yl)-[4-Fluoro-3-(7-morpholin-4-yl-quinazolin-4-yl)phenyl]-methanol]

IC50 [3]: 0.5 to 5 µM
SMILES: CNC(=O)c1ccc(C(O)c2cc(-c3ncnc4cc(N5CCOCC5)ccc34)c(F)cc2Cl)nn1 (stereo not shown) [Example 43, 6-{[2-Chloro-4-fluoro-5-(7-morpholin-4-yl-quinazolin-4-yl)phenyl]-hydroxymethyl}-pyridazine-3-carboxylic acid methylamide]

IC50 [1]: 10 to 30 µM
SMILES: OCc1csc(C(O)c2cc(-c3ncnc4cc(N5CCOCC5)ncc34)c(F)cc2Cl)n1 (stereo not shown) [Example 141, [2-Chloro-4-fluoro-5-(7-morpholin-4-yl-pyrido[4,3-d}-pyrimidin-4-yl)-phenyl]-(4-hydroxymethyl-thiazol-2-yl)-methanol]

IC50 [3]: 5 to 10 µM
SMILES: CCOc1cnnc(C(O)c2ccc(F)c(-c3ncnc4cc(N5CCOCC5)ccc34)c2)c1 (stereo not shown) [Example 79, (5-Ethoxypyridazin-3-yl)-[4-fluoro-3-(7-morpholin-4-yl-quinazolin-4-yl)phenyl]-methanol]

IC50 [2]: 10 to 30 µM
SMILES: Cc1nccnc1C(C(N)=O)c1ccc(F)c(-c2ncnc3cc(N4CCOCC4)ccc23)c1 (stereo not shown) [Example 327, 2-[4-Fluoro-3-(7-morpholin-4-yl-quinazolin-4-yl)-phenyl]-2-(3-methyl-pyrazin-2-yl)-acetamide]

IC50 [1]: 0.5 to 5 µM
SMILES: OC(c1ccc(OCC(F)(F)F)nn1)c1cc(-c2ncnc3cc(N4CCOCC4)ccc23)c(F)cc1Cl (stereo not shown) [Example 115, [2-Chloro-4-fluoro-5-(7-morpholin-4-yl-quinazolin-4-yl)-phenyl]-[6-(2,2,2-trifluoro-ethoxy)-pyridazin-3-yl]-methanol]

IC50 [3]: 10 to 30 µM
SMILES: COc1cnc(C(O)c2ccc(OC)c(-c3ncnc4cc(N5CCOCC5)ccc34)c2)cn1 (stereo not shown) [Example 61, [4-methoxy-3-(7-morpholin-4-yl-quinazolin-4-yl)phenyl]-(5-methoxypyrazin-2-yl)methanol]

IC50 [3]: 0.5 to 5 µM
SMILES: OC(c1ccc(F)c(-c2ncnc3cc(N4CCOCC4)ccc23)c1)c1ncccc1C(F)(F)F (stereo not shown) [Example 80, [4-Fluoro-3-(7-morpholin-4-yl-quinazolin-4-yl)-phenyl]-(3-trifluoro-methylpyridin-2-yl)-methanol]

IC50 [3]: 0.5 to 5 µM
SMILES: COc1ccnnc1C(O)c1ccc(F)c(-c2ncnc3cc(N4CCOCC4)ccc23)c1 (stereo not shown) [Example 18, [4-Fluoro-3-(7-morpholin-4-yl-quinazolin-4-yl)phenyl]-(4-methoxy-pyridazin-3-yl)methanol]

IC50 [4]: 0.5 to 5 µM
SMILES: OC(c1cc(F)c(F)c(-c2ncnc3cc(N4CCOCC4)ccc23)c1)c1nccs1 (stereo not shown) [Example 178, [3,4-Difluoro-5-(7-morpholin-4-yl-quinazolin-4-yl)-phenyl]thiazol-2-yl-methanol]

IC50 [5]: < 0.5 µM
SMILES: OC(c1cc(-c2ncnc3cc(N4CCOCC4)ccc23)ccc1Cl)c1ncnc2ccoc12 (stereo not shown) [Example 415, [2-Chloro-5-(7-morpholin-4-yl-quinazolin-4-yl)-phenyl]furo[3,2-d}-pyrimidin-4-yl-methanol (Ena 1)]

IC50 [5]: < 0.5 µM
SMILES: OC(c1cc(-c2ncnc3cc(N4CCOCC4)ccc23)c(F)cc1Cl)c1ncnc2ccoc12 (stereo not shown) [Example 441, [2-Chloro-4-fluoro-5-(7-morpholin-4-yl-quinazolin-4-yl)-phenyl]furo[3,2-d}-pyrimidin-4-yl-methanol]

IC50 [1]: 10 to 30 µM
SMILES: OC(c1cccc(-c2ncnc3cc(N4CCOCC4)ccc23)c1)(c1nccs1)C(F)(F)F (stereo not shown) [Example 159, 2,2,2-Trifluoro-1-[3-(7-morpholin-4-yl-quinazolin-4-yl)-phenyl]-1-thiazol-2-ylethanol]

IC50 [2]: 0.5 to 5 µM
SMILES: Cc1nccnc1C(O)c1cc(-c2ncnc3cc(N4CCOCC4)cnc23)c(F)cc1Cl (stereo not shown) [Example 240, [2-Chloro-4-fluoro-5-(7-morpholin-4-yl-pyrido[3,2-d}-pyrimidin-4-yl)-phenyl]-(3-methyl-pyrazin-2-yl)-methanol]

IC50 [2]: 5 to 10 µM
SMILES: COc1nccnc1C(C(N)=O)c1cc(-c2ncnc3cc(N4CCOCC4)ccc23)c(F)cc1F (stereo not shown) [Example 319, 2-[2,4-Difluoro-5-(7-morpholin-4-ylquinazolin-4-yl)phenyl]-2-(3-methoxypyrazin-2-yl)-acetamide]

IC50 [2]: 0.5 to 5 µM
SMILES: Cc1cc(C(O)c2ccc(F)c(-c3ncnc4cc(N5CCOCC5)ccc34)c2)n(C)c(=O)c1 (stereo not shown) [Example 340, 6-{[4-Fluoro-3-(7-morpholin-4-yl-quinazolin-4-yl)-phenyl]hydroxy-methyl}-1,4-dimethyl-1H-pyridin-2-one]

IC50 [1]: 5 to 10 µM
SMILES: OCCNc1nccnc1C(O)c1ccc(F)c(-c2ncnc3cc(N4CCOCC4)ccc23)c1 (stereo not shown) [Example 106, 2-(3-{[4-fluoro-3-(7-morpholin-4-yl-quinazolin-4-yl)-phenyl]hydroxy-methyl}pyrazin-2-yl-amino)ethanol]

IC50 [1]: 10 to 30 µM
SMILES: COC(c1ccc(F)c(-c2ncnc3cc(N4CCOCC4)ccc23)c1)c1nccs1 (stereo not shown) [Example 177, 4-[2-Fluoro-5-(-methoxythiazol-2-ylmethyl)phenyl]-7-morpholin-4-yl-quinazoline]

IC50 [6]: < 0.5 µM
SMILES: COc1nccnc1C(O)c1cc(-c2ncnc3cc(N4CCOCC4)ccc23)c(F)cc1Cl (stereo not shown) [Example 468, [2-Chloro-4-fluoro-5-(7-morpholin-4-yl-quinazolin-4-yl)-phenyl]-(3-methoxy-pyrazin-2-yl)-methanol]

IC50 [4]: < 0.5 µM
SMILES: COc1ccc(C(O)c2cc(-c3ncnc4cc(N5CCOCC5)sc34)c(F)cc2Cl)nn1 (single isomer, unassigned) [Example 126, [2-Chloro-4-fluoro-5-(6-morpholin-4-ylthieno[3,2-d}-pyrimidin-4-yl)-phenyl]-(6-methoxy-pyridazin-3-yl)-methanol]

IC50 [5]: < 0.5 µM
SMILES: COc1nccnc1C(O)c1cc(-c2ncnc3cc(N4CCOCC4)ccc23)c(F)cc1F (stereo not shown) [Example 454]

IC50 [2]: 5 to 10 µM
SMILES: NC(=O)C(c1ccc(F)c(-c2ncnc3cc(N4CCOCC4)ccc23)c1)c1nnc(Cl)c2ccsc12 (stereo not shown) [Example 290, 2-(4-Chlorothieno-[2,3-d}pyridazin-7-yl)-2-[4-fluoro-3-(7-morpholin-4-yl-quinazolin-4-yl)-phenyl]acetamide]

IC50 [6]: 0.5 to 5 µM
SMILES: O=c1ccc(C(O)c2ccc(F)c(-c3ncnc4cc(N5CCOCC5)ccc34)c2)n[nH]1 (stereo not shown) [Example 367, 6-{[4-Fluoro-3-(7-morpholin-4-yl-quinazolin-4-yl)phenyl]-hydroxymethyl}-2H-pyridazin-3-one]

IC50 [3]: 0.5 to 5 µM
SMILES: COc1ccc([C@@H](O)c2ccc(F)c(-c3ncnc4cc(N5CCOCC5)ccc34)c2)nn1 [Example 72, (S)-[4-Fluoro-3-(7-morpholin-4-yl-quinazolin-4-yl)phenyl]-(6-methoxypyridazin-3-yl)methanol]

IC50 [5]: < 0.5 µM
SMILES: OC(c1cc(-c2ncnc3cc(N4CCOCC4)ccc23)c(F)cc1F)c1ncnc2ccoc12 (stereo not shown) [Example 445, [2,4-Difluoro-5-(7-morpholin-4-yl-quinazolin-4-yl)-phenyl]furo[3,2-d}-pyrimidin-4-yl-methanol]

IC50 [1]: 5 to 10 µM
SMILES: Cc1nc(C(O)c2ccc(F)c(-c3ncnc4cc(N5CCOCC5)ccc34)c2)sc1CO (stereo not shown) [Example 200, [4-Fluoro-3-(7-morpholin-4-yl-quinazolin-4-yl)-phenyl]-(5-hydroxy-methyl-4-methyl-thiazol-2-yl)-methanol]

IC50 [2]: 0.5 to 5 µM
SMILES: NC(=O)C(c1ccc(F)c(-c2ncnc3cc(N4CCOCC4)ccc23)c1)c1c(F)cncc1F (stereo not shown) [Example 321, 2-(3,5-Difluoro-pyridin-4-yl)-2-[4-fluoro-3-(7-morpholin-4-yl-quinazolin-4-yl)-phenyl]acetamide]

IC50 [4]: 10 to 30 µM
SMILES: Cc1nc(C(O)c2cnc(F)c(-c3ncnc4cc(N5CCOCC5)ncc34)c2)sc1C (stereo not shown) [Example 203, (4,5-Dimethyl-thiazol-2-yl)-[6-fluoro-5-(7-morpholin-4-yl-pyrido[4,3-d}-pyrimidin-4-yl)-pyridin-3-yl]-methanol]

IC50 [2]: < 0.5 µM
SMILES: OC(c1cc(-c2ncnc3cc(N4CCOCC4)ccc23)c(F)cc1F)c1nncc2sccc12 (stereo not shown) [Example 341, [2,4-Difluoro-5-(7-morpholin-4-yl-quinazolin-4-yl)-phenyl]thieno[2,3-d}-pyridazin-4-yl-methanol]
